Measured values published in patent US20140213513A1 (Sanofi, priority 2012, published 2014).
Converted amounts (≈) assume the structure as drawn. Where two headings read alike, the source gives them in different places. *1 amine or outer side, *2 acyl side, *3 side chain or, on linkers, in order; H or OH if unused. Where a SMILES comes first, the peptide text is derived from it. Side-chain parts run from the residue outwards. [ ]: non-standard residue; d: D form. The star is where a group is joined. γGlu = O=C(O)[C@H](CCC(=O)[*:2])N[*:1]; Stearoyl = CCCCCCCCCCCCCCCCCC(=O)*; Palmitoyl = CCCCCCCCCCCCCCCC(=O)*; Aib = CC(C)(N)C(=O)O

Key:
[1] = Solubility testing in buffer (HPLC-UV of supernatant); assay type: physicochemical
[2] = molecular target: T1, human GLP-1 receptor (hGLP-1 R) (Homo sapiens, UniProt P43220); experiment: cAMP response of HEK-293 cells stably expressing human GLP-1 receptor (HTRF); assay type: cell-based; details: Table 7; cAMP formation
T1 construct: expressed in transfected cells
How it was run: (§1)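 HEK-293 cells stably expressing the receptor were resuspended at 400000 cells/ml in HBSS/20 mM HEPES/0.1% BSA buffer with 2 mM IBMX. Cells were stimulated with compound for 30 min at room temperature. Intracellular cAMP was measured by HTRF.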

[3] = molecular target: T2, human glucagon receptor (hGLUC R) (Homo sapiens, UniProt P47871); experiment: cAMP response of HEK-293 cells stably expressing human glucagon receptor (HTRF); assay type: cell-based; details: Table 7; cAMP formation
T2 construct: expressed in transfected cells
How it was run: as §1

[4] = molecular target: T3, human GIP receptor (hGIP R) (Homo sapiens, UniProt P48546); experiment: cAMP response of HEK-293 cells stably expressing human GIP receptor (HTRF); assay type: cell-based; details: Table 7; cAMP formation
T3 construct: expressed in transfected cells
T3 sequence (P48546 22-466): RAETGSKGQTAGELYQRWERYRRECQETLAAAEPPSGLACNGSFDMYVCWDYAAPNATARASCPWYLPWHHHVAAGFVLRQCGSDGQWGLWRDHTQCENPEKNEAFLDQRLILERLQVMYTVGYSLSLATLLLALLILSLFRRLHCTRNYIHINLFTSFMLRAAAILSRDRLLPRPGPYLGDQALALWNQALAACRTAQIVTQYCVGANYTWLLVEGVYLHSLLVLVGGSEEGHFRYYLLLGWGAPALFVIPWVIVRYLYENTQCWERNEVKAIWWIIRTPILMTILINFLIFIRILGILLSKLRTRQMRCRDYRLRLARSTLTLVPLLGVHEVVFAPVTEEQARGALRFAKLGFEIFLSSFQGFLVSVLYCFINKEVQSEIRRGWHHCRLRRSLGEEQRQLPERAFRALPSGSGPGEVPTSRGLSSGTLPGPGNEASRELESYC
How it was run: as §1

[5] = molecular target: T4, human GIP receptor (human) (UniProt P48546); experiment: cell-based or functional assay
T4 sequence (looked up): T3 sequence (P48546 22-466)

[6] = molecular target: human GLP-1 receptor (human) (UniProt P43220); experiment: cell-based or functional assay
[7] = Pharmacokinetic testing in mice (plasma LC/MS); assay type: in vivo; details: mouse, sc, 1 mg/kg s.c.
Experimental: Mice were dosed 1 mg/kg subcutaneously (s.c.).
Pharmacokinetic profiles were determined as described in Methods.

[8] = pH 4.5, target concentration 1.0 mg/mL, read-out: Solubility (pH 4.5)
[9] = pH 7.4, target concentration 1.0 mg/mL, read-out: Solubility (pH 7.4)

T2 sequence (P47871 26-477): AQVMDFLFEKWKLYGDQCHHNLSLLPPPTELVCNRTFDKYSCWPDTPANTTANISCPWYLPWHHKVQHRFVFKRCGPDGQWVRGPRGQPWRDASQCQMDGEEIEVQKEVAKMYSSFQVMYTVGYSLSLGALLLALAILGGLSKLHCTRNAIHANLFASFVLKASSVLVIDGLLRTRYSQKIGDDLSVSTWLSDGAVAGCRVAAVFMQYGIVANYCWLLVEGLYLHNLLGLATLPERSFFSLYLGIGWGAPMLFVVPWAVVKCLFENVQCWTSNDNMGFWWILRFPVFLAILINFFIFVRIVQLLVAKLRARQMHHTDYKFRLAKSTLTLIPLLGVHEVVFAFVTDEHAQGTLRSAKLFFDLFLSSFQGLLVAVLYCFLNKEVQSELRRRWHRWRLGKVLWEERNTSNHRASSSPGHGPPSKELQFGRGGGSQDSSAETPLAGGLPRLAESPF
T1 sequence (P43220 24-463): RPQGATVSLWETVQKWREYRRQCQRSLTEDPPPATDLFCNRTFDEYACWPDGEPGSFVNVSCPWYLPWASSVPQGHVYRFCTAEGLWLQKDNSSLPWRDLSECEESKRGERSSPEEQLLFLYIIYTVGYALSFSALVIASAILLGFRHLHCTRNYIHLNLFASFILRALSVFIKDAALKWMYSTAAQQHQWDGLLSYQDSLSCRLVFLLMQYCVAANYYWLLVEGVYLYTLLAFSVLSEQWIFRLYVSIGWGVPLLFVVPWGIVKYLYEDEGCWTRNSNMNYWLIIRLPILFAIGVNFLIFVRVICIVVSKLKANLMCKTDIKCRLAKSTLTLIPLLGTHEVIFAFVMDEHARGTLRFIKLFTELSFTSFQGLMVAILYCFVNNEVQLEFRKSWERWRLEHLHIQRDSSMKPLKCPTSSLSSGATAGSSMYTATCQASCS
Sequence of human GLP-1 receptor (human) (P43220 24-463): as above

Molecule	solubility at 2 h [1, 8]	solubility at 2 h [1, 9]	EC50 [2]	EC50 [3]	EC50 [4]	EC50 hGIP R [5]	EC50 hGLP-1 R [6]	Cmax [7]	half-life [7]
CCCCCCCCCCCCCCCCCC(=O)N[C@@H](CCC(=O)NCCCC[C@H](NC(=O)[C@H](CCC(N)=O)NC(=O)[C@@H](NC(=O)[C@H](CO)NC(=O)[C@H](CC(C)C)NC(=O)[C@H](CC(=O)O)NC(=O)[C@H](CO)NC(=O)[C@@H](NC(=O)[C@H](Cc1ccccc1)NC(=O)[C@@H](NC(=O)CNC(=O)[C@H](CCC(=O)O)NC(=O)C(C)(C)NC(=O)[C@@H](N)Cc1ccc(O)cc1)[C@@H](C)O)[C@@H](C)O)[C@@H](C)CC)C(=O)N[C@@H](CCC(=O)O)C(=O)N[C@@H](CO)C(=O)N[C@@H](CCCCN)C(=O)N[C@@H](C)C(=O)N[C@@H](C)C(=O)N[C@@H](CCC(N)=O)C(=O)N[C@@H](CCC(=O)O)C(=O)N[C@@H](Cc1ccccc1)C(=O)N[C@H](C(=O)N[C@@H](CCC(=O)O)C(=O)N[C@@H](Cc1c[nH]c2ccccc12)C(=O)N[C@@H](CC(C)C)C(=O)N[C@@H](CCCCN)C(=O)N[C@@H](C)C(=O)NCC(=O)NCC(=O)N1CCC[C@H]1C(=O)N[C@@H](CO)C(=O)N[C@@H](CO)C(=O)NCC(=O)N[C@@H](C)C(=O)N1CCC[C@H]1C(=O)N1CCC[C@H]1C(=O)N1CCC[C@H]1C(=O)N[C@@H](CO)C(N)=O)[C@@H](C)CC)C(=O)O [SEQ ID NO: 42, Y-Aib-E-G-T-F-T-S-D-L-S-I-Q-K(yE-x70)-ESKAAQEFIEWLKAGGPSSGAPPPS-NH2] (H-Y[Aib]EGTFTSDLSIQK([γGlu-Stearoyl])ESKAAQEFIEWLKAGGPSSGAPPPS-NH2)	> 1000 µg/mL	936 µg/mL (≈ 208 µM)	0.0062 nM	8.47 nM	0.0129 nM	–	–	–	–
CCCCCCCCCCCCCCCC(=O)N[C@@H](CCC(=O)NCCCC[C@H](NC(=O)[C@H](CCC(N)=O)NC(=O)[C@H](CCCCN)NC(=O)[C@H](CO)NC(=O)[C@H](CC(C)C)NC(=O)[C@H](CC(=O)O)NC(=O)[C@H](CO)NC(=O)[C@@H](NC(=O)[C@H](Cc1ccccc1)NC(=O)[C@@H](NC(=O)CNC(=O)[C@H](CCC(N)=O)NC(=O)C(C)(C)NC(=O)[C@@H](N)Cc1ccc(O)cc1)[C@@H](C)O)[C@@H](C)O)C(=O)N[C@@H](CCC(=O)O)C(=O)N[C@@H](CO)C(=O)N[C@@H](CCCCN)C(=O)N[C@@H](C)C(=O)N[C@@H](C)C(=O)N[C@@H](CCC(N)=O)C(=O)N[C@@H](CCC(=O)O)C(=O)N[C@@H](Cc1ccccc1)C(=O)N[C@H](C(=O)N[C@@H](CCC(=O)O)C(=O)N[C@@H](Cc1c[nH]c2ccccc12)C(=O)N[C@@H](CC(C)C)C(=O)N[C@@H](CCCCN)C(=O)N[C@@H](C)C(=O)NCC(=O)NCC(=O)N1CCC[C@H]1C(=O)N[C@@H](CO)C(=O)N[C@@H](CO)C(=O)NCC(=O)N[C@@H](C)C(=O)N1CCC[C@H]1C(=O)N1CCC[C@H]1C(=O)N1CCC[C@H]1C(=O)N[C@@H](CO)C(N)=O)[C@@H](C)CC)C(=O)O [SEQ ID NO: 40, Y-Aib-Q-G-T-F-T-S-D-L-S-K-Q-K(yE-x53)-ESKAAQEFIEWLKAGGPSSGAPPPS-NH2] (H-Y[Aib]QGTFTSDLSKQK([γGlu-Palmitoyl])ESKAAQEFIEWLKAGGPSSGAPPPS-NH2)	986 µg/mL (≈ 220 µM)	993 µg/mL (≈ 222 µM)	0.0055 nM	0.0226 nM	0.0536 nM	–	–	–	–
CCCCCCCCCCCCCCCC(=O)N[C@@H](CCC(=O)NCCCC[C@H](NC(=O)[C@H](CCC(N)=O)NC(=O)[C@@H](NC(=O)[C@H](CO)NC(=O)[C@H](CC(C)C)NC(=O)[C@H](CC(=O)O)NC(=O)[C@H](CO)NC(=O)[C@@H](NC(=O)[C@H](Cc1ccccc1)NC(=O)[C@@H](NC(=O)CNC(=O)[C@H](CCC(=O)O)NC(=O)C(C)(C)NC(=O)[C@@H](N)Cc1ccc(O)cc1)[C@@H](C)O)[C@@H](C)O)[C@@H](C)CC)C(=O)N[C@@H](CCC(=O)O)C(=O)N[C@@H](CCC(=O)O)C(=O)N[C@@H](CCCNC(=N)N)C(=O)N[C@@H](C)C(=O)N[C@@H](C)C(=O)N[C@@H](Cc1c[nH]cn1)C(=O)N[C@@H](CCC(=O)O)C(=O)N[C@@H](Cc1ccccc1)C(=O)N[C@H](C(=O)N[C@@H](CCC(=O)O)C(=O)N[C@@H](Cc1c[nH]c2ccccc12)C(=O)N[C@@H](CC(C)C)C(=O)N[C@@H](CCCCN)C(=O)N[C@@H](CCCNC(=N)N)C(=O)NC(C)(C)C(=O)NCC(=O)N1CCC[C@H]1C(=O)N[C@@H](CO)C(=O)N[C@@H](CO)C(=O)NCC(=O)N[C@@H](C)C(=O)N1CCC[C@H]1C(=O)N1CCC[C@H]1C(=O)N1CCC[C@H]1C(=O)N[C@@H](CO)C(N)=O)[C@@H](C)CC)C(=O)O [SEQ ID NO: 37, Y-Aib-E-G-T-F-T-S-D-L-S-I-Q-K(yE-x53)-E-E-R-A-A-H-E-F-I-E-W-L-K-R-Aib-G-P-S-S-G-A-P-P-P-S-NH2]	> 1000 µg/mL	> 1000 µg/mL	0.0066 nM	12.1 nM	0.0121 nM	–	–	–	–
Tyr(1)Ile(12)-exendin-4 (peptide)	–	–	–	–	–	0.0939 nM	0.0013 nM	–	–
CCCCCCCCCCCCCCCC(=O)N[C@@H](CCC(=O)NCCCC[C@H](NC(=O)[C@H](CCC(N)=O)NC(=O)[C@@H](NC(=O)[C@H](CO)NC(=O)[C@H](CC(C)C)NC(=O)[C@H](CC(=O)O)NC(=O)[C@H](CO)NC(=O)[C@@H](NC(=O)[C@H](Cc1ccccc1)NC(=O)[C@@H](NC(=O)CNC(=O)[C@H](CCC(N)=O)NC(=O)C(C)(C)NC(=O)[C@@H](N)Cc1ccc(O)cc1)[C@@H](C)O)[C@@H](C)O)[C@@H](C)CC)C(=O)N[C@@H](CCC(=O)O)C(=O)N[C@@H](CCCCN)C(=O)N[C@@H](CCCNC(=N)N)C(=O)N[C@@H](C)C(=O)N[C@@H](C)C(=O)NC(C)(C)C(=O)N[C@@H](CCC(=O)O)C(=O)N[C@@H](Cc1ccccc1)C(=O)N[C@H](C(=O)N[C@@H](CCC(=O)O)C(=O)N[C@@H](Cc1c[nH]c2ccccc12)C(=O)N[C@@H](CC(C)C)C(=O)N[C@@H](CCCCN)C(=O)N[C@@H](C)C(=O)N[C@H](C)C(=O)NCC(=O)N1CCC[C@H]1C(=O)N[C@@H](CO)C(=O)N[C@@H](CO)C(=O)NCC(=O)N[C@@H](C)C(=O)N1CCC[C@H]1C(=O)N1CCC[C@H]1C(=O)N1CCC[C@H]1C(=O)N[C@@H](CO)C(N)=O)[C@@H](C)CC)C(=O)O [SEQ ID NO: 14, Y-Aib-Q-G-T-F-T-S-D-L-S-I-Q-K(yE-x53)-E-K-R-A-A-Aib-E-F-I-E-W-L-K-A-dAla-G-P-S-S-G-A-P-P-P-S-N H2]	1020 µg/mL (≈ 227 µM)	> 1000 µg/mL	0.0065 nM	0.0623 nM	0.0062 nM	–	–	5570 ng/mL	2.2 h
CCCCCCCCCCCCCCCC(=O)N[C@@H](CCC(=O)NCCCC[C@H](NC(=O)[C@H](CCC(N)=O)NC(=O)[C@H](CCCCN)NC(=O)[C@H](CO)NC(=O)[C@H](CC(C)C)NC(=O)[C@H](CC(=O)O)NC(=O)[C@H](CO)NC(=O)[C@@H](NC(=O)[C@H](Cc1ccccc1)NC(=O)[C@@H](NC(=O)CNC(=O)[C@H](CCC(=O)O)NC(=O)C(C)(C)NC(=O)[C@@H](N)Cc1ccc(O)cc1)[C@@H](C)O)[C@@H](C)O)C(=O)N[C@@H](CCC(=O)O)C(=O)N[C@@H](CCCCN)C(=O)N[C@@H](CCC(=O)O)C(=O)N[C@@H](C)C(=O)N[C@@H](C)C(=O)NC(C)(C)C(=O)N[C@@H](CCC(=O)O)C(=O)N[C@@H](Cc1ccccc1)C(=O)N[C@H](C(=O)N[C@@H](CCC(=O)O)C(=O)N[C@@H](Cc1c[nH]c2ccccc12)C(=O)N[C@@H](CC(C)C)C(=O)N[C@@H](CCCCN)C(=O)N[C@@H](C)C(=O)NCC(=O)NCC(=O)N1CCC[C@H]1C(=O)N[C@@H](CO)C(=O)N[C@@H](CO)C(=O)NCC(=O)N[C@@H](C)C(=O)N1CCC[C@H]1C(=O)N1CCC[C@H]1C(=O)N1CCC[C@H]1C(=O)N[C@@H](CO)C(N)=O)[C@@H](C)CC)C(=O)O [SEQ ID NO: 17, Y-Aib-E-G-T-F-T-S-D-L-S-K-Q-K(yE-x53)-E-K-E-A-A-Aib-E-F-I-E-W-L-K-A-G-G-P-S-S-G-A-P-P-P-S-NH2] (H-Y[Aib]EGTFTSDLSKQK([γGlu-Palmitoyl])EKEAA[Aib]EFIEWLKAGGPSSGAPPPS-NH2)	> 1000 µg/mL	> 1000 µg/mL	0.0052 nM	21 nM	0.0083 nM	–	–	–	–
